The test system of series [1] is HIV-1 strain IIIB. As to the kind of experiment: Inhibition of replication of HIV-1 (IIIB strain) in MT-4 cells, MTT assay. It counts as cell-based. Particulars: Human immunodeficiency virus 1, IIIB, MT4, 120 h; MT-4 cells, MTT assay, five days after infection, 50% protection from cytopathic effect; read-out: EC50 (μM) HIV-1 (IIIB). For orientation: Tetrazolium assays rely on reduction of a dye to a coloured formazan, in cell work by metabolically active cells.

For series [2], the system named is HIV-2 strain (ROD). As to the kind of experiment: Inhibition of replication of HIV-2 (ROD strain) in MT-4 cells, MTT assay. The note with it: Human immunodeficiency virus 2, MT4, 120 h; MT-4 cells, MTT assay, five days after infection, 50% protection from cytopathic effect; read-out: EC50 (μM) HIV-2 (ROD). The format is cell-based.
Series [3] in a line: in vitro. The note with it: human.

The term EC50 denotes the midpoint of the concentration-response curve.

For `Nc1nc(N2CCN(S(=O)(=O)c3ccccc3)CC2)c2nc(-c3ccc(F)cc3)sc2n1` [Example 41, 2-(4-fluorophenyl)-7-(4-(phenylsulfonyl)piperazin-1-yl)thiazolo[5,4-d]pyrimidin-5-amine], the EC50 in series [1] and in series [2] was more than 237 µM throughout. The CC50 in series [3] was determined as 237 µM.
As to `Nc1nc(N2CCOCC2)c2cc(-c3ccc(F)cc3)sc2n1` [Example 364, 6-(4-fluorophenyl)-4-morpholinothieno[2,3-d]pyrimidin-2-amine], the concentration for a half-maximal effect (EC50) in series [1] and in series [2] was more than 239 µM throughout. Further, in series [3], the CC50 was determined as 239 µM.
On to `Nc1nc(SCc2ccccc2)c2nc(-c3ccc(F)cc3)sc2n1` [Example 28, 7-(benzylthio)-2-(4-fluorophenyl)thiazolo[5,4-d]pyrimidin-5-amine], for which the EC50 in series [1] and in series [2] was more than 339 µM in each case. In series [3], this compound had a CC50 of more than 339 µM.
For `Cc1cccc(N2CCN(c3nc(N)nc4sc(-c5ccc(F)cc5)nc34)CC2)c1` [Example 35, 2-(4-fluorophenyl)-7-(4-m-tolylpiperazin-1-yl)-thiazolo[5,4-d]pyrimidin-5-amine], the EC50 was more than 234 µM in series [1] and more than 38.5 µM in series [2]. In series [3], this compound registered a CC50 of 234 µM.
Taken in the same sequence, the figures for `Nc1nc(N2CCOCC2)c2nc(-c3ccc(F)cc3)sc2n1` [Example 33, 2-(4-fluorophenyl)-7-morpholino-thiazolo[5,4-d]pyrimidin-5-amine] were more than 207 µM, 141 µM and 235 µM.
On the same counts, the results for `CCCCCN1CCN(c2nc(N)nc3sc(-c4ccc(F)cc4)nc23)CC1` [Example 37, 2-(4-fluorophenyl)-7-(4-pentylpiperazin-1-yl)thiazolo[5,4-d]pyrimidin-5-amine] are more than 312 µM, 212 µM and more than 312 µM.
On the same counts, the results for `Nc1nc(N2CCOCC2)c2nc(Cc3ccc(F)cc3)sc2n1` [Example 34, 2-(4-fluorobenzyl)-7-morpholino-thiazolo[5,4-d]pyrimidin-5-amine] are more than 362 µM, more than 362 µM and more than 362 µM.
In the case of `Cc1cccc(NC(=O)N2CCN(c3nc(N)nc4sc(-c5ccc(F)cc5)nc34)CC2)c1` [Example 43, 4-(5-amino-2-(4-fluorophenyl)thiazolo[5,4-d]pyrimidin-7-yl)-N-m-tolylpiperazine-1-carboxamide], the half-maximal effective concentration (EC50) in series [1] came out at 0.4 µM; in series [2], 0.39 µM. The compound further displayed a CC50 in series [3] of 15.8 µM.
On the same counts, the results for `Cc1ccc(NC(=O)N2CCN(c3nc(N)nc4sc(-c5ccc(F)cc5)nc34)CC2)cc1` [Example 42, 4-(5-amino-2-(4-fluorophenyl)-thiazolo[5,4-d]pyrimidin-7-yl)-N-p-tolylpiperazine-1-carboxamide] are 1.35 µM, 0.98 µM and 28.2 µM.
On the same counts, the results for `Nc1nc(N2CCN(Cc3ccccc3)CC2)c2nc(-c3ccc(F)cc3)sc2n1` [Example 39, 7-(4-benzylpiperazin-1-yl)-2-(4-fluorophenyl)thiazolo[5,4-d]pyrimidin-5-amine] are more than 45.2 µM, more than 45.2 µM and 45.2 µM.
`CCOc1nc(N)nc2sc(Cc3ccc(F)cc3)nc12` [Example 31, 7-ethoxy-2-(4-fluorobenzyl)thiazolo[5,4-d]pyrimidin-5-amine]: the half-maximal effective concentration (EC50) in series [1] and in series [2] was more than 411 µM each time. In series [3], this compound yielded a CC50 of more than 411 µM.
`Cc1cccc(NC(=O)N2CCN(c3nc(N)nc4sc(Cc5ccc(F)cc5)nc34)CC2)c1` [Example 44, 4-(5-amino-2-(4-fluorobenzyl)thiazolo[5,4-d]pyrimidin-7-yl)-N-m-tolylpiperazine-1-carboxamide]: the EC50 amounted to 4.02 µM in series [1] and 0.85 µM in series [2]. This compound displayed a CC50 in series [3] of 10.1 µM.
On to `CCOc1nc(N)nc2sc(-c3ccc(F)cc3)nc12` [Example 30, 7-ethoxy-2-(4-fluorophenyl)thiazolo[5,4-d]pyrimidin-5-amine], for which the EC50 in series [1] and in series [2] was more than 373 µM each time. The same compound displayed a CC50 in series [3] of more than 373 µM.
With `Nc1nc(N2CCNCC2)c2nc(-c3ccc(F)cc3)sc2n1` [Example 25, 2-(4-fluorophenyl)-7-(piperazin-1-yl)-thiazolo[5,4-d]pyrimidin-5-amine], the EC50 in series [1] and in series [2] was more than 1.8 µM in each case. For the same compound, the CC50 in series [3] was found to be 1.8 µM.
In the case of `Nc1nc(N2CCN(C(=O)OCc3ccccc3)CC2)c2nc(-c3ccc(F)cc3)sc2n1` [Example 40, benzyl-4-(5-amino-2-(4-fluorophenyl)thiazolo[5,4-d]pyrimidin-7-yl)piperazine-1-carboxylate], the EC50 in series [1] and in series [2] was more than 241 µM each time. The same compound came in with a CC50 in series [3] of 241 µM.
Regarding `COc1ccc(OCC(=O)N2CCN(c3nc(N)nc4sc(CCc5ccc(F)cc5)nc34)CC2)cc1` [Example 50, 1-(4-(5-amino-2-(4-fluorophenethyl)thiazolo[5,4-d]pyrimidin-7-yl)piperazin-1-yl)-2-(4-methoxyphenoxy)ethanone], the EC50 in series [1] was 3.5 µM; in series [2], more than 212 µM. The same compound returned a CC50 in series [3] of 212 µM.
For the compound `Nc1nc(N2CCN(C(=O)COc3ccc(Cl)cc3)CC2)c2nc(-c3ccc(F)cc3)oc2n1` [Example 169, 1-(4-(5-amino-2-(4-fluorophenyl)oxazolo[5,4-d]pyrimidin-7-yl)piperazin-1-yl)-2-(4-chlorophenoxy)ethanone], the half-maximal effective concentration (EC50) in series [1] and in series [2] was more than 50 µM throughout. In series [3], this compound had a CC50 of more than 50 µM.
As for `Nc1nc(N2CCN(CC(=O)N3CCOCC3)CC2)c2nc(-c3ccc(F)cc3)sc2n1` [Example 38, 2-(4-(5-amino-2-(4-fluorophenyl)thiazolo[5,4-d]pyrimidin-7-yl)piperazin-1-yl)-1-morpholinoethanone], the EC50 is more than 251 µM in series [1] and more than 201 µM in series [2]. In series [3], this compound yielded a CC50 of 201 µM.
Taken in the same sequence, the figures for `Nc1nc(N2CCN(c3nccs3)CC2)c2nc(-c3ccc(F)cc3)sc2n1` [Example 36, 2-(4-fluorophenyl)-7-(4-(thiazol-2-yl)piperazin-1-yl)thiazolo[5,4-d]pyrimidin-5-amine] were more than 29 µM, more than 36.4 µM and 36.4 µM.
On the same counts, the results for `COCCOc1nc(N)nc2sc(-c3ccc(F)cc3)nc12` [Example 29, 2-(4-fluorophenyl)-7-(2-methoxyethoxy)-thiazolo[5,4-d]pyrimidin-5-amine] are more than 390 µM, 220 µM and more than 390 µM.
Taken in the same sequence, the figures for `Cc1cccc(NC(=O)N2CCN(c3nc(N)nc4sc(C(C)c5ccc(F)cc5)nc34)CC2)c1` (stereo not drawn) [Example 68, 4-(5-amino-2-(1-(4-fluorophenyl)ethyl)thiazolo[5,4-d]pyrimidin-7-yl)-N-m-tolylpiperazine-1-carboxamide] were more than 30.3 µM, more than 30.3 µM and 30.3 µM.
For the compound `CSc1nc(N)nc2sc(-c3ccc(F)cc3)nc12` [Example 16, 2-(4-fluorophenyl)-7-(methylthio)thiazolo[5,4-d]pyrimidin-5-amine], the figures for the half-maximal effective concentration (EC50) in series [1] and in series [2] were more than 233 µM and more than 82.1 µM, respectively. The compound also yielded a CC50 in series [3] of 82.1 µM.

The record behind these values is patent publication US9730944B2, “Antiviral activity of novel bicyclic heterocycles” (priority 2010, dated 2017).
